Measured values taken from patent US10968163B2, “Alpha-truxillic acid derivatives and pharmaceutical compositions thereof” (The Research Foundation for the State University of New York, priority 2016, dated 2021).

What was measured:
[1] = compared with morphine; cited from earlier work
FABP3 = FABP3 (Homo sapiens (Human), UniProt P05413); assay: DAUDA, ANS or NBD-stearate fluorescence displacement binding assay, FABP3; conditions: average ± S.E. of at least three independent experiments
FABP5 [2] = biological target: T1, FABP5 (Homo sapiens (Human), UniProt Q01469); assay: DAUDA, ANS or NBD-stearate fluorescence displacement binding assay, FABP5; conditions: average ± S.E. of at least three independent experiments
Description: FABP5 (30 μg), NBD-stearate (1 μM), and a competitor test compound were incubated in 30 mM Tris-HCl, 100 mM NaCl buffer (pH 7.6). […] The initial assay was run with buffer (30 mM Tris-HCl buffer), negative controls (buffer and NBD-stearate), positive controls (buffer, NBD-stearate, FABP5), and experimental wells with a variable test compound added (arachidonic acid or one of the 48 test compounds) at 10 μM. […] GraphPad Prism was also used to determine the Ki of these select competitors from the equation Ki=IC50/(1+([NBD-stearate]/Kd)). The Kd of NBD-stearate for FABP5 had been determined previously through incubating FABP5 with increasing concentrations of NBD-stearate.
Determination of Ki was derived from DAUDA or NBD-stearate displacement assays (see Table 1).

FABP7 = FABP7 (Homo sapiens (Human), UniProt O15540); assay: DAUDA, ANS or NBD-stearate fluorescence displacement binding assay, FABP7; conditions: average ± S.E. of at least three independent experiments
FABP5 [3] = biological target: T1, FABP5; conditions: read-out: Kd of NBD-stearate for FABP5; cited from earlier work
formalin induced pain = conditions: formalin induced mouse models; cited from earlier work

T1 sequence (Q01469 whole entry, species assumed): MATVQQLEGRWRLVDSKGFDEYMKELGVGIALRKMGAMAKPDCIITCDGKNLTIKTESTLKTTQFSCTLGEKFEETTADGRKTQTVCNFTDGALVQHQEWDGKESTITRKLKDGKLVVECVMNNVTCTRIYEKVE
Sequence of FABP3 (P05413 whole entry, species assumed): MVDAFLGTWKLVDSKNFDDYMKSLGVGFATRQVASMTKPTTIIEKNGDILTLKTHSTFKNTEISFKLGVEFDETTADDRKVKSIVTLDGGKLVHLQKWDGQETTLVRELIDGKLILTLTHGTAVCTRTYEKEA
Sequence of FABP7 (O15540 whole entry, species assumed): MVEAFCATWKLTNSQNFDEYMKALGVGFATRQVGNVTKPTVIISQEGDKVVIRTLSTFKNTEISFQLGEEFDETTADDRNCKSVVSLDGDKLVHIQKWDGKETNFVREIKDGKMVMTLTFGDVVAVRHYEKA

Structure (SMILES)	antinociceptive properties [1]	Ki (FABP3)	Ki (FABP5 [2])	Ki (FABP7)	Kd (FABP5 [3])	antinociceptive effect in early and late stage pain (formalin induced pain)
COc1cc([C@H]2[C@H](C(=O)O[C@@H]3C[C@@H]4[C@@H](CN(C)C[C@@H]4C)[C@@H]3C)[C@H](c3ccc(O)c(OC)c3)[C@H]2C(=O)O[C@@H]2C[C@@H]3[C@@H](CN(C)C[C@@H]3C)[C@@H]2C)ccc1O [(−)-incarvillateine]	antinociceptive properties on the same level as morphine					
O=C(O)[C@H]1[C@@H](c2ccccc2)[C@H](C(=O)OCc2ccccc2)[C@@H]1c1ccccc1 [Compound 3a, Benzyl α-2,4-diphenylcyclobutane-1,3-dicarboxylate]		> 10 µM				
COc1ccc(COC(=O)[C@H]2[C@@H](c3ccccc3)[C@H](C(=O)O)[C@@H]2c2ccccc2)cc1 [Compound 3b, 4-Methoxybenzyl α-2,4-diphenylcyclobutane-1,3-dicarboxylate]		> 10 µM	2.15 ± 0.1 µM	1.14 ± 0.06 µM		
O=C(O)[C@H]1[C@H](c2ccccc2)[C@H](C(=O)OCc2ccc(F)cc2)[C@H]1c1ccccc1 [Compound 3c, 4-Fluorobenzyl α-2,4-diphenylcyclobutane-1,3-dicarboxylate]		> 10 µM	2.42 ± 0.18 µM	1.65 ± 0.21 µM		
O=C(O)[C@H]1[C@H](c2ccccc2)[C@H](C(=O)OCc2ccc(Br)cc2)[C@H]1c1ccccc1 [Compound 3d, 4-Bromobenzyl α-2,4-diphenylcyclobutane-1,3-dicarboxylate]		> 10 µM	1.58 ± 0.16 µM	1.25 ± 0.03 µM		
O=C(O)[C@H]1[C@H](c2ccccc2)[C@H](C(=O)Oc2ccccc2I)[C@H]1c1ccccc1 [Compound 3e]		1.18 ± 0.1 µM	1.34 ± 0.21 µM	0.94 ± 0.34 µM		
O=C(O)[C@H]1[C@H](c2ccccc2)[C@H](C(=O)Oc2cccc(-c3ccccc3)c2)[C@H]1c1ccccc1 [Compound 3h, Biphenyl-3-yl α-2,4-Diphenylcyclobutane-1,3-dicarboxylate]		9.75 ± 0.79 µM		0.74 ± 0.17 µM		
O=C(O)[C@H]1[C@H](c2ccccc2)[C@H](C(=O)Oc2ccc(-c3ccccc3)cc2)[C@H]1c1ccccc1 [Compound 3i]		3.93 ± 0.16 µM	2.52 ± 0.36 µM	2.27 ± 0.03 µM		
O=C(O)[C@H]1[C@H](c2ccccc2)[C@H](C(=O)Oc2ccccc2-c2ccccc2O)[C@H]1c1ccccc1 [Compound 3j, 2′-HO-biphenyl-2-yl α-2,4-diphenylcyclobutane-1,3-dicarboxylate]		3.52 ± 0.53 µM	1.59 ± 0.43 µM	0.54 ± 0.18 µM		
O=C(O)[C@H]1[C@H](c2ccccc2)[C@H](C(=O)Oc2ccc(Cl)c(Cl)c2Cl)[C@H]1c1ccccc1 [Compound 3k]		2.98 ± 0.85 µM		0.54 ± 0.02 µM		
O=C(O)[C@H]1[C@H](c2ccccc2)[C@H](C(=O)OC2Cc3ccccc3C2)[C@H]1c1ccccc1 [Compound 3m, Indan-2-yl α-2,4-diphenylcyclobutane-1,3-dicarboxylate]		> 10 µM		2.41 ± 0.09 µM		
C#Cc1cccc2c(OC(=O)[C@H]3[C@@H](c4ccccc4)[C@H](C(=O)O)[C@@H]3c3ccccc3)cccc12 [Compound 3p, 5-Ethynylnaphth-1-yl α-2,4-diphenylcyclobutane-1,3-dicarboxylate]		4.94 ± 0.31 µM	3.92 ± 0.75 µM	1.03 ± 0.22 µM		
O=C(O)[C@H]1[C@H](c2ccccc2)[C@H](C(=O)OCC2c3ccccc3-c3ccccc32)[C@H]1c1ccccc1 [Compound 3q, 9-Fluorenylmethyl α-2,4-diphenylcyclobutane-1,3-dicarboxylate]		> 10 µM	2.56 ± 0.16 µM	2.7 ± 0.62 µM		
O=C(O)[C@H]1[C@@H](c2ccccc2)[C@H](C(=O)OCC(F)(F)F)[C@@H]1c1ccccc1 [Compound 3r, 2,2,2-Trifluoroethyl α-2,4-diphenylcyclobutane-1,3-dicarboxylate]		> 10 µM	> 10 µM			
O=C(O)C1C(c2ccccc2)C(C(=O)OC2CCCCC2)C1c1ccccc1 (stereo not drawn) [Compound 3s, Cyclohexyl α-2,4-diphenylcyclobutane-1,3-dicarboxylate]		> 10 µM		0.5 ± 0.11 µM		
CCOCCOCCOCCn1cc(-c2cccc(OC(=O)[C@H]3[C@@H](c4ccccc4)[C@H](C(=O)O)[C@@H]3c3ccccc3)c2)nn1 [Compound 3t]		> 10 µM	> 10 µM	1.06 ± 0.07 µM		
COc1cc([C@H]2[C@H](C(=O)O)[C@H](c3ccc(O)c(OC)c3)[C@H]2C(=O)Oc2cccc3ccccc23)ccc1O [Compound 4a, 1-Naphthyl α-2,4-di(3-methoxy-4-hydroxy)cyclobutane-1,3-dicarboxylate]		1.06 ± 0.19 µM	> 10 µM	2.12 ± 0.19 µM		
O=C(O)[C@H]1[C@@H](c2ccc(O)cc2)[C@H](C(=O)Oc2cccc3ccccc23)[C@@H]1c1ccc(O)cc1 [Compound 4d]			> 10 µM			
COc1ccccc1C1C(C(=O)O)C(c2ccccc2OC)C1C(=O)O[C@@H]1CCCC[C@H]1c1ccccc1 (stereo partly drawn) [Compound 4e, (1R,2S)-2-Phenylcyclohexyl α-2,4-di(2-methoxylphenyl)cyclobutane-1,3-dicarboxylate]		0.4 ± 0.08 µM		0.4 ± 0.03 µM		
O=C(O)[C@H]1[C@H](c2ccccc2Cl)[C@H](C(=O)OC2CCCC[C@H]2c2ccccc2)[C@H]1c1ccccc1Cl (stereo partly drawn) [Compound 4f, (1R,2S)-2-Phenylcyclohexyl α-2,4-di(2-chlorophenyl)cyclobutane-1,3-dicarboxyliate]		> 10 µM		> 10 µM		
O=C(O)[C@H]1[C@H](c2c(Cl)cccc2Cl)[C@H](C(=O)OC2CCCC[C@H]2c2ccccc2)[C@H]1c1c(Cl)cccc1Cl (stereo partly drawn) [Compound 4g, (1R,2S)-2-Phenylcyclohexyl α-2,4-di(2,6-dichlorophenyl)cyclobutane-1,3-dicarboxylate]		> 10 µM				
O=C(O)C1C(c2ccccc2Br)C(C(=O)O[C@@H]2CCCC[C@H]2c2ccccc2)C1c1ccccc1Br (stereo partly drawn) [Compound 4h, (1R,2S)-2-Phenylcyclohexyl α-2,4-di(2-bromophenyl)cyclobutane-1,3-dicarboxylate]		> 10 µM		> 10 µM		
COc1ccccc1[C@H]1[C@H](C(=O)O)[C@H](c2ccccc2OC)[C@H]1C(=O)OCC1c2ccccc2-c2ccccc21 [Compound 4j, 9-Fluorenylmethyl α-2,4-di(2-methoxylphenyl)cyclobutane-1,3-dicarboxylate]		> 10 µM		> 10 µM		
O=C(O)[C@H]1[C@H](c2ccccc2Cl)[C@H](C(=O)OCC2c3ccccc3-c3ccccc32)[C@H]1c1ccccc1Cl [Compound 4k, 9-Fluorenylmethyl α-2,4-di(2-chlorophenyl)cyclobutane-1,3-dicarboxylate]		> 10 µM		3.54 ± 0.77 µM		
CCCCCCC(CCCCCCCCCCC(=O)O)N(C)c1ccc([N+](=O)[O-])c2nonc12 (centres unmarked) [NBD-stearate]					0.16 µM	
O=C(O)C1C(c2ccccc2)C(C(=O)O)C1c1ccccc1 (stereo not drawn) [α-truxillic acid, α-2,4-diphenylcyclobutene-1,3-dicarboxylic Acid]						best antinociceptive agent in both early and late stage pain
